# Test results taken from paper PMC8123395, “Aggregation and Its Influence on the Bioactivities of a Novel Antimicrobial Peptide, Temporin-PF, and Its Analogues” (International Journal of Molecular Sciences, 2021).
# Like-named read-outs stand apart in the source and are kept apart here. Non-standard residues stand in square brackets, D forms with d. Residues, ends and D or L forms follow the SMILES beside them. No end group written: not given here.
# Key:
# [1] = test system: Enterococcus faecalis (NCTC 12697); assay type: cell-based
# Protocol: (§1) The minimum inhibitory concentration (MIC) and minimum bactericidal concentration (MBC) of peptides against the selected microorganisms were determined using the broth-dilution method, as described in the previous study. […] were used in the assay: Gram-positive bacteria Staphylococcus aureus (NCTC 10788), Enterococcus faecalis (NCTC 12697), and methicillin-resistant S. aureus (MRSA) (NCTC 12493); Gram-negative bacteria Escherichia coli (NCTC 10418), Pseudomonas aeruginosa (ATCC 27853), and Klebsiella pneumoniae (ATCC 43816). All the strains were cultured in Mueller Hinton Broth (MHB), pH 7.4 (Oxiod, Basingstoke, UK). Each peptide was tested at the final concentration from 128 to 1 µM in two-fold dilution. Norfloxacin was applied as the positive control.
# [2] = test system: Escherichia coli (NCTC 10418); assay type: cell-based
# Protocol: as §1
# [3] = test system: Klebsiella pneumoniae (ATCC 43816); assay type: cell-based
# Protocol: as §1
# [4] = test system: Pseudomonas aeruginosa (ATCC 27853); assay type: cell-based
# Protocol: as §1
# [5] = test system: Staphylococcus aureus (NCTC 10788); assay type: cell-based
# Protocol: as §1
# [6] = test system: methicillin-resistant S. aureus (MRSA) (NCTC 12493); assay type: cell-based
# Protocol: as §1
# MRSA biofilm = assay type: cell-based; conditions: 24 h
# Protocol: (§2) MBIC and MBEC assays were performed as previously described with minor modifications. For the MBIC assay, a suspension of broth diluted bacteria culture (5 × 10^5 CFU/mL) was incubated with the peptide solutions at 37 °C for 24 h. For MBEC assay, 100 μL inoculum culture was seeded to a 96-well-flat-bottom plate and incubated at 37 °C for 48 h to obtain the mature biofilm. Afterwards, the plate was washed by sterile phosphate-buffered saline (PBS; Sigma-Aldrich, Gillingham, UK) twice and treated with a series peptide solution at 37 °C for 24 h. Then, all the plates were washed with PBS and stained by 100 μL 0.1% crystal violet solution (Sigma-Aldrich, Gillingham, UK), and further dissolved by 30% acetic acid (Sigma-Aldrich, Gillingham, UK). The absorbance of each well was recorded by Synergy HT plate reader (Biotech, Minneapolis, MN, USA) at 595 nm.
# MRSA mature biofilm = assay type: cell-based
# Protocol: as §2
# S. aureus biofilm = assay type: cell-based; conditions: 24 h
# Protocol: as §2
# S. aureus mature biofilm = assay type: cell-based
# Protocol: as §2
# [7] = Circular dichroism, helix content by BeStSel; assay type: physicochemical; conditions: CD, room temperature, BeStSel analysis; for Helix Content % DPPC: 50 μM peptide in 3 mM DPPC SUVs (erythrocyte membrane mimic); for Helix Content % DPPG/DPPE: 50 μM peptide in 3 mM DPPG/DPPE (88:12) SUVs (bacterial membrane mimic); for Helix Content % 50% TFE: 50 μM peptide in 50% TFE/10 mM NH4AC, three scans averaged
# Protocol: Figure 8 CD spectra of TPF and the analogs (50 μM) prepared in 10 mM NH4AC, 50% TFE/10 mM NH4AC, 3 mM DPPG/DPPE (88:12) SUVs, and 3 mM DPPC SUVs. The spectra were averaged over three consecutive scans, and the solvent CD signal was subtracted.
# The determination of the secondary structure of peptides was conducted using a JASCO J-815 CD Spectropolarimeter (JASCO Inc., Tokyo, Japan) as described in the previous study. Then, 50 μM of each peptide sample was prepared in the aqueous 10 mM ammonium acetate (NH4Ac; Sigma-Aldrich, Gillingham, UK) buffer, 50% (v/v) 2,2,2-trifluoroethanol (TFE; Sigma-Aldrich, Gillingham, UK), and 3 mM DPPG:DPPE (88:12) and DPPC small unilamellar liposomes/vesicles (SUVs) that were used to mimic the bacterial and mammalian erythrocyte cell membranes, respectively. The liposome was hydrated in deionized water and then sonicated for 15 min with an interval 30 s in an ice bath for generating SUVs. Samples were loaded in a 1-mm thickness quartz cuvette and analyzed at room temperature with the following parameters: scan range of 190–250 nm, scanning speed of […], 1 nm bandwidth, and 0.5 nm data pitch. The spectra were obtained by averaging data from three scans. The CD spectra were analyzed by BeStSel (http://bestsel.elte.hu/index.php, accessed on 16 May 2020) for the determination of secondary structure content.
# [8] = Observation of aggregation: turbidity (absorbance at 600 nm) in media and salt solutions; assay type: physicochemical; conditions: absorbance 600 nm, three replicates
# Protocol: Figure 3 The absorbance of TPF and the analogs prepared in (a) a series of culture media, including PBS, RPMI1640, RPMI1640 with 10% FBS, TSB, and MHB; 0.25, 0.5, and 1 M of (b) Na2HPO4, (c) CaCl2, and (d) MgCl2 solutions. Peptide solutions were prepared from 1 mg/mL, and the wavelength was set as 600 nm. The error bar represents the standard deviation (SD) with three replicates.
# The method was followed the previous study with modifications. The purified peptides were prepared at 10 mg/mL in water and subsequently diluted with different solutions, including PBS, RPMI1640, RPMI1640 with 10% FBS, TSB, MHB, Na2HPO4 (0.25, 0.5, and 1 M), CaCl2 (0.25, 0.5, and 1 M), and MgCl2 (0.25, 0.5, and 1 M), in a 96-well plate to achieve the final concentration of 1 mg/mL. The turbidity of each well was detected using the absorbance at 600 nm by a plate reader. The peptides dissolved in water were applied as negative control.
# [9] = RP-HPLC retention order of mixed peptides (overall hydrophobicity); assay type: physicochemical; conditions: peptides mixed in equal ratio and subjected to RP-HPLC; Supplementary Figure S4
# Protocol: All peptides were chemically synthesized and purified by RP-HPLC. They were further mixed with an equal ratio and subjected to RP-HPLC. […] Subsequently, all peptides (1 mg/mL) were dissolved in a series of widely used culture media (Figure 2).
# N-terminal Phe of temporin was believed to participate in the packaging of “head-tail” oligomerization. […] Furthermore, Trp/D-Trp substitution carried out on des-Phe1 TPF enhanced the peptide aggregation. […] It may be related to the decrease of the helical content; however, it could also be caused by the change of aggregation effects. Previous studies have shown that AMPs with strong antimicrobial activity are present as monomers in an aqueous solution and aggregate on the membrane to disrupt the bacterial cell membrane. […] It has been proposed that some aggregation effects of AMPs could limit the interaction of the peptide with its target, thereby reducing the antibacterial efficacy. In the previous study, the zipper-like motif is associated with the bioactivities as well as the assembly in the LPS micelles, which was considered to arise from hydrophobic interactions mainly. However, the overall hydrophobicity of Trp/D-Trp substituted analogs is less than that of des-Phe1 TPF, as estimated by RP-HPLC analysis. We hypothesize that the enhanced assembly seen for Trp/D-Trp substituted analogs might be related to the increased content of aromatic residues, because it could promote the strength of π stacking or cation-π type interaction. However, the true relation has not been fully clarified so far, and the capability of aromatic moieties to promote aggregation could also be affected by the hydrophobicity, position, and the neighboring side chains in their three-dimensional conformation.
# horse erythrocytes = assay: Hemolysis test; assay type: cell-based; conditions: 2% horse erythrocyte suspension; peptide 128 to 1 µM; comparison among the four peptides
# Protocol: Figure 9 Hemolytic activity of TPF and the analog against horse red blood cell. The percentage of hemolysis was calculated with the absorbance at 570 nm, compared with PBS-treated red blood cells. The error bar represents SD of five replicates.
# The hemolytic activity of each peptide was measured by incubating a range of final peptide concentrations from 128 to 1 µM in a two-fold dilution in a 2% suspension of the horse erythrocytes, as described in a previous study. The absorbance of hemoglobin released from red blood cells was detected at 570 nm. The percentage of hemolysis was calculated by the comparison to the 1% Triton X-100 treated red blood cells.
# [10] = Preliminary observation of solubility / hydrogel formation in PBS; assay type: physicochemical; conditions: peptide 10 mg/mL in PBS
# Protocol: After the identification of TPF, the chemical synthesis of TPF was performed successfully. […] Therefore, we synthesized the des-Phe1 TPF to investigate the correlation between oligomerize effect and bioactivities. […] Therefore, we further substituted Phe with Trp and D-Trp to reveal the relationship between the oligomerization effect and the zipper motif and the influence on bioactivities (Table 1). The correct synthesis of peptides had been checked by MALDI-TOF mass spectrometry (Supplementary Figure S6) and synthetic yields were calculated (Supplementary Figure S7).
# [11] = E. faecalis NCTC 12697, broth dilution in MHB pH 7.4, peptide 128 to 1 µM
# [12] = E. coli NCTC 10418, broth dilution in MHB pH 7.4, peptide 128 to 1 µM
# [13] = K. pneumoniae ATCC 43816, broth dilution in MHB pH 7.4, peptide 128 to 1 µM
# [14] = P. aeruginosa ATCC 27853, broth dilution in MHB pH 7.4, peptide 128 to 1 µM
# [15] = S. aureus NCTC 10788, broth dilution in MHB pH 7.4, peptide 128 to 1 µM two-fold dilution
# [16] = MRSA NCTC 12493, broth dilution in MHB pH 7.4, peptide 128 to 1 µM
Compound,"MBC ([1]; NCTC 12697, pH 7.4) [µM]","MIC ([1]; NCTC 12697, pH 7.4) [µM]","MBC ([2]; NCTC 10418, pH 7.4) [µM]","MIC ([2]; NCTC 10418, pH 7.4) [µM]","MBC ([3]; ATCC 43816, pH 7.4) [µM]","MIC ([3]; ATCC 43816, pH 7.4) [µM]","MBC ([4]; ATCC 27853, pH 7.4) [µM]","MIC ([4]; ATCC 27853, pH 7.4) [µM]","MBC ([5]; NCTC 10788, pH 7.4) [µM]","MIC ([5]; NCTC 10788, pH 7.4) [µM]","MBC ([6]; NCTC 12493, pH 7.4) [µM]","MIC ([6]; NCTC 12493, pH 7.4) [µM]",MBIC (MRSA biofilm; biofilm),"MBEC (MRSA mature biofilm; mature biofilm, 48 h)",MBIC (S. aureus biofilm; biofilm),"MBEC (S. aureus mature biofilm; mature biofilm, 48 h)",Helix Content % DPPC [7] [%],Helix Content % DPPG/DPPE [7] [%],Helix Content % 50% TFE [7] [%],"order of retention time (RP-HPLC, used as estimate of overall hydrophobicity) [9]",further results
LPLIAGLWGKIW-NH2 [W-des-Phe1 TPF],128,128,128,128,128,128,> 128,> 128,32,32,128,128,128/>128 µM,128/>128 µM,64 µM,> 128 µM,10.1,26.9,27.7,TPF> des-Phe1 TPF> W-des-Phe1 TPF> dW-des-Phe1 TPF,"turbidity in culture media ([8]; peptide 1 mg/mL diluted from 10 mg/mL in water, PBS, RPMI1640, RPMI1640 with 10% FBS, TSB, MHB): increased outstandingly; salting-out effect in Na2HPO4 solutions ([8]; peptide 1 mg/mL, 0.25, 0.5 and 1 M Na2HPO4): strongest salting-out effect"
FLPLIAGLFGKIF-NH2 [TPF],–,–,–,–,–,–,–,–,–,–,–,–,–,–,–,–,–,–,–,–,"MBC [1, 11]: 16 µM; MIC [1, 11]: 16 µM; MBC [2, 12]: > 128 µM; MIC [2, 12]: > 128 µM; MBC [3, 13]: > 128 µM; MIC [3, 13]: > 128 µM; MBC [4, 14]: > 128 µM; MIC [4, 14]: > 128 µM; MBC [5, 15]: 32 µM; MIC [5, 15]: 4 µM; MBC [6, 16]: 4 µM; MIC [6, 16]: 4 µM; MBIC (MRSA biofilm; MRSA, 5 × 10^5 CFU/mL with peptide, 37 °C, crystal violet, absorbance 595 nm): 4 µM; MBEC (MRSA mature biofilm; MRSA, 48 h mature biofilm treated with peptide 37 °C, 24 h, crystal violet, absorbance 595 nm): 16 µM; MBIC (S. aureus biofilm; S. aureus, 5 × 10^5 CFU/mL with peptide, 37 °C, crystal violet, absorbance 595 nm): 4 µM; MBEC (S. aureus mature biofilm; S. aureus, 48 h mature biofilm treated with peptide 37 °C, 24 h, crystal violet, absorbance 595 nm): 32 µM; hemolytic activity (in words) (horse erythrocytes): strongest hemhemolytic activity; solubility in PBS [10]: significantly decreased"
CC[C@H](C)[C@H](NC(=O)[C@H](CC(C)C)NC(=O)[C@@H]1CCCN1C(=O)[C@@H](N)CC(C)C)C(=O)N[C@@H](C)C(=O)NCC(=O)N[C@@H](CC(C)C)C(=O)N[C@H](Cc1c[nH]c2ccccc12)C(=O)NCC(=O)N[C@@H](CCCCN)C(=O)N[C@H](C(=O)N[C@H](Cc1c[nH]c2ccccc12)C(N)=O)[C@@H](C)CC [dW-des-Phe1 TPF] (H-LPLIAGL[dW]GKI[dW]-NH2; N-terminus assumed),> 128,> 128,> 128,> 128,> 128,> 128,> 128,> 128,64,64,> 128,> 128,>128/>128 µM,>128/>128 µM,>128/>128 µM,>128/>128 µM,8.3,0.5,3.0,TPF> des-Phe1 TPF> W-des-Phe1 TPF> dW-des-Phe1 TPF,–
